Tests used:
[1] = system: subjects with Depression; test: 48-day daily oral treatment, subjects diagnosed with depression; format: in vivo; conditions: 14 subjects with depression, 48-day treatment, 30 mg of each active
Protocol: (§1) In a 48-day treatment, 50 subjects suffering from diverse medical conditions receive a daily oral dose with either • pure psilocybin (30 mg); • pure cannabidiol (30 mg); or • combined treatment of pure psilocybin (30 mg)+pure cannabidiol (30 mg).

[2] = system: subjects with Psychotic disorder; test: 48-day daily oral treatment, subjects diagnosed with psychotic disorder; format: in vivo; conditions: 3 subjects with psychotic disorder; 48-day treatment, daily oral dose 30 mg; increase
Protocol: as §1

[3] = system: subjects with Schizophrenia; test: 48-day daily oral treatment, subjects diagnosed with schizophrenia; format: in vivo; conditions: 2 subjects with schizophrenia, 48-day treatment, 30 mg of each active, decrease
Protocol: as §1

[4] = system: subjects with Anxiety disorder; test: 48-day daily oral treatment, subjects diagnosed with anxiety disorder; format: in vivo; conditions: 4 subjects with anxiety disorder; 48-day treatment, daily oral dose 30 mg; increase
Protocol: as §1

[5] = system: subjects with Panic disorder; test: 48-day daily oral treatment, subjects diagnosed with panic disorder; format: in vivo; conditions: 2 subjects with panic disorder; 48-day treatment, daily oral dose 30 mg; increase
Protocol: as §1

[6] = system: subjects with Huntington's disease; test: 48-day daily oral treatment, subject diagnosed with Huntington's disease; format: in vivo; conditions: 1 subject with Huntington's disease, 48-day treatment, 30 mg of each active
Protocol: as §1

[7] = system: subjects with Alzheimer's disease; test: 48-day daily oral treatment, subjects diagnosed with Alzheimer's disease; format: in vivo; conditions: 10 subjects with Alzheimer's disease, 48-day treatment, 30 mg of each active
Protocol: as §1

[8] = system: subjects with Dementia; test: 48-day daily oral treatment, subjects diagnosed with dementia; format: in vivo; conditions: 10 subjects with dementia, 48-day treatment, 30 mg of each active
Protocol: as §1

[9] = system: subjects with Parkinson's disease; test: 48-day daily oral treatment, subjects diagnosed with Parkinson's disease; format: in vivo; conditions: 4 subjects with Parkinson's disease, 48-day treatment, 30 mg of each active
Protocol: as §1

[10] = general statement in description; cited from earlier work

| SMILES | subjects report improved mood after period of treatment [1] [subjects report] | increased occurrence of psychotic episodes during period of treatment, on average [2] | decreased occurrence of schizophrenic episodes during period of treatment, on average [3] | increased occurrence of anxiety attacks during period of treatment, on average [4] | Increased occurrence of panic attacks during period of treatment, on average [5] | progression of movement, cognitive, and psychiatric disorders during treatment [6] | progression of disease symptoms during treatment [7] | progression of disease symptoms during treatment [8] | progression of movement disorders during treatment [9] | toxicity [10] |
| --- | --- | --- | --- | --- | --- | --- | --- | --- | --- | --- |
| C=C(C)[C@@H]1CCC(C)=C[C@H]1c1c(O)cc(CCCCC)cc1O [cannabidiol] | 5 | on average, 10% | on average, 50% | on average, 40% | on average, 40% | normal progression | normal progression | normal progression | normal progression |  |
| CN(C)CCc1c[nH]c2cccc(OP(=O)(O)O)c12 [psilocybin, [3-(2-dimethylaminoethyl)-1H-indol-4-yl] dihydrogen phosphate] | 6 | on average, 20% | on average, 0% | on average, 50% | on average, 50% |  |  |  |  | low toxicity |

— US10729706B2, “Psilocybin and/or psilocin in combination with cannabinoids and/or terpenes” (Procare Beheer B.V., priority 2017, dated 2020)
